Assay results: patent US20240065270A1 (priority 2018, published 2024)
“Also recorded” adds a separate entry of the source.

Tests used:
[1] = test system: Arabidopsis mutants ixr1-1, ixr1-2 and ixr2-1; assay: Growth (root length) of isoxaben resistant mutants ixr1-1, ixr1-2, ixr2-1 on supplemented media; format: in vivo; details: media supplemented with the compound
Text: (§1) Recently, we discovered a new cellulose synthase inhibitor Cellulosin and a group of cesa6 mutants that carry mis-sense mutations at the central cytoplasmic region that contains the catalytic motif and are resistant to Cellulosin. In order to test whether Cellulosin has the same mode of action as isoxaben, indaziflam and C17, we first tested the growth of isoxaben resistant mutants on media supplemented with Cellulosin. […] We next tested the growth of our Cellulosin resistant mutants on isoxaben, indaziflam and C17.
Wildtype (WT) Arabidopsis and its mutants ixr1-1, ixr1-2, and ixr2-1 are grown on media supplemented with DMSO (FIGS. 1A-1B), isoxaben (FIGS. 1C-1D) or Cellulosin (FIGS. 1E-1F) and their quantifications on their root length. Arabidopsis mutants ixr1-1, ixr1-2 and ixr2-1 have longer roots in compare with wildtype (Col) on media supplemented with isoxaben. […] Bars: 1 cm

[2] = test system: plants expressing CesA6 carrying mis-sense mutations at the catalytic site; assay: Growth of transgenic plants expressing CesA6 with mis-sense mutations at the hypothesized Cellulosin binding sites; format: in vivo, Arabidopsis; details: cesa6 loss-of-function mutant background; compared with DMSO control
Text: as §1

[3] = test system: Arabidopsis wildtype plants; assay: Growth (root length) of Arabidopsis wildtype plants on media with low-dose herbicides, alone and combined; format: in vivo
Procedure: Because Cellulosin has different target as isoxaben, indaziflam and C17. Since the need to avoid the development of herbicide-resistant weeds that is caused by repetitive application of the same herbicide is utmost, we decided to test whether application of Cellulosin together with isoxaben, indaziflam and C17 would make it possible to control the weeds more efficiently with reduced dosage of two herbicides.
Statistically significant differences in right panels were determined by one-way ANOVA test followed by Tukey's multiple comparisons test. Different letters of root length of seedlings indicate significant difference between groups (p<0.05). N=12.
[…] Bar, 1 cm.
Because Cellulosin and isoxaben target CesA at different sites, it allowed us to hypothesize that application of both herbicides at the same time will make it possible to control the weeds with reduced dosage of both herbicides. This should also avoid the development of herbicide-resistant weeds that is caused by repetitive application of the same herbicide. We tested the growth of Arabidopsis at lower dosage of both Cellulosin and isoxaben.

[4] = test system: Cellulosin resistant mutants (cesa6); assay: Growth (root length) of Cellulosin resistant cesa6 mutants on supplemented media; format: in vivo, Arabidopsis; details: media supplemented with the compound, compared with DMSO control
Text: as §1
FIGS. 2E-2G depict quantifications of root length of Cellulosin resistant mutants on media supplemented with isoxaben (FIG. 2E), indaziflam (FIG. 2F), and C17 (FIG. 2G) in comparison with DMSO control, Statistically significant differences in right panels were determined by one-way ANOVA test followed by Tukey's multiple comparisons test. Different letters of root length of seedlings indicate significant difference between groups (p<0.05). Bars: 1 cm.

## CCC(C)(CC)c1cc(NC(=O)c2c(OC)cccc2OC)on1 [isoxaben, N-3[1-ethyl-1-methylpropyl]-5-isoxazolyl-2,6, or dimethoxybenzamide]
[1]
  growth / root length of isoxaben resistant mutants compared with wildtype (Col): longer roots
[2]
  resistance / sensitivity in growth of plants expressing mutated CesA6: do not show resistance; also recorded: they have the same sensitivity
[3]; 3.5 nM isoxaben alone, nine days old plants
  plant growth inhibition: Neither 300 nM Cellulosin nor 3.5 nM isoxaben significantly inhibits plant growth; also recorded: does not significantly inhibit plant growth
[3]; 4 nM isoxaben alone in growth media
  plant growth inhibition: not inhibited; also recorded: did not inhibit plant growth; also recorded: does not significantly inhibit plant growth
[4]
  sensitivity of Cellulosin resistant mutants in growth (root length): Most of our mutants that are resistant to Cellulosin are sensitive; also recorded: only a few of our mutants show reduced sensitivity

## Cc1ccc2c(c1)[C@H](Nc1nc(N)nc(C(C)F)n1)[C@@H](C)C2 (stereo partly drawn) [indaziflam]
[2]
  resistance / sensitivity in growth of plants expressing mutated CesA6: do not show resistance; also recorded: they have the same sensitivity
[3]; 0.06 nM indaziflam alone in growth media
  plant growth inhibition: did not inhibit plant growth; also recorded: does not significantly inhibit plant growth
[3]; 0.25 nM indaziflam alone in growth media
  plant growth inhibition: not inhibited
[4]
  sensitivity of Cellulosin resistant mutants in growth (root length): Most of our mutants that are resistant to Cellulosin are sensitive; also recorded: only a few of our mutants show reduced sensitivity
